Patent US9745274B2, “Compound, organic cation transporter 3 detection agent, and organic cation transporter 3 activity inhibitor” (SHIN NIPPON BIOMEDICAL LABORATORIES, LTD., priority 2013, dated 2017)
pIC50: −log10 of the molar value. Where two headings read alike, the source gives them in different places.

Assays:
[1] = biological target: T1, human organic cation transporter 3 (hOCT3) (Homo sapiens, UniProt O75751); experiment: Histamine incorporation experiment in HEK293 cells expressing hOCT3 (OCT3 inhibition activity); assay type: cell-based; conditions: for remaining activity at 10 µM / remaining activity at 30 µM: HEK293, 1 min, no inhibitor = 100%, read-out: Histamine Incorporation Rate to Control (%); for remaining activity at 10 µM / inhibition at 10 µM: Compound Concentration 10 μM; for inhibition at 10 µM / inhibition at 30 µM: HEK293, 100% minus histamine incorporation rate; for remaining activity at 30 µM / inhibition at 30 µM: Compound Concentration 30 μM; for remaining activity at 30 µM: [3H]histamine 100 nM, 1 minute; for OCT3 Inhibition Rate (%): Tables 3-1 to 3-15, in a manner similar to Example 12 (30 μM there), concentration not given in the tables
T1 construct: expressed in transfected cells; host or cells: HEK293
T1 sequence (O75751 1-556): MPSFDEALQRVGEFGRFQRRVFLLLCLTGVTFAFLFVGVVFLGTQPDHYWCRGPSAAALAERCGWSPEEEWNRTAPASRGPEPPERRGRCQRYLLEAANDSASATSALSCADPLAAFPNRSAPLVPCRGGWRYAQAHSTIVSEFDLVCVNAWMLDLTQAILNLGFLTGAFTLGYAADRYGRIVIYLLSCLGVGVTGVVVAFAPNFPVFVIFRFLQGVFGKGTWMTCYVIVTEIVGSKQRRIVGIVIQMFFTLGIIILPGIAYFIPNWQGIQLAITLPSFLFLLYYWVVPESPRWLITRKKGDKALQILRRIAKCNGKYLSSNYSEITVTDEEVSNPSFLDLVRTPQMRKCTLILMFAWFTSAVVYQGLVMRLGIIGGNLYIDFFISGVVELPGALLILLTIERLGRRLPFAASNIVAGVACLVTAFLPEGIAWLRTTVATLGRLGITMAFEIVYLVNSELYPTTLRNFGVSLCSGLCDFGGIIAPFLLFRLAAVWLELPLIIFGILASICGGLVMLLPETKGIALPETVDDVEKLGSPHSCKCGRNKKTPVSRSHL
Experimental: In order to measure an activity that inhibits OCT3 from incorporating a substrate (OCT3 inhibition activity) for each compound, histamine incorporation experiments as described below were performed.
Histamine incorporation experiments were performed in accordance with a method disclosed in Br J Pharmacol. 2002; 136(6): 829-836. In the experiments, HEK293 cells were used. The HEK293 cell is a human embryonal renal cell strain expressing human organic cation transporter 3 (hOCT3). The HEK 293 cells were inoculated onto 24-well plates at 1.5×10^5 cells/well, and were cultivated overnight in a carbon dioxide incubator. Test substances were dissolved in 100% DMSO solution and then dissolved in HBSS-HEPES solution (buffer solution prepared by dissolving 9.7 g Hank's Balanced Salt, 1.4% sodium bicarbonate 25 mL, and 1M HEPES 25 mL in 940 mL ultra pure water, and by adjusting to pH7.4 with 1M sodium hydroxide). After removing culture media for cell culture, pretreatment was performed for 5 minutes with 1 mL HBSS-HEPES solution. Then, the test substance and [3H]histamine (final concentration 100 nM) were added to the cells and reacted for 1 minute at room temperature. After the reaction was completed, the reaction was stopped by ice-cooled HBSS-HEPES solution, extracellular fluid was aspirated by an aspirator, and then the cells were washed twice with HBSS-HEPES. After washing, the cells were dissolved in 0.5M sodium hydroxide solution. The amount of histamine in the cells was found by measuring a radioactivity in a cell lysis solution by a liquid scintillation counter. Protein content in the cells was measured by Lowry method (J Biol Chem. 1951; 193(1): 265-75) by using the cell lysis solution, and translated into histamine incorporation amount per protein content for each experiment. A histamine incorporation rate (%) in the presence of 30 μM of the test substance was calculated by regarding a histamine incorporation amount in a case of no incorporation inhibitor as 100% (control) of histamine incorporation rate. A value (%) obtained by subtracting the histamine incorporation rate from 100(%) was calculated as an OCT3 inhibition rate (%).
Note that a histamine incorporation rate (%) in the presence of 10 μM of the test substance was calculated by regarding a histamine incorporation amount in a case of no incorporation inhibitor as 100% (control) of histamine incorporation rate. A value (%) obtained by subtracting the histamine incorporation rate from 100(%) was calculated as an OCT3 inhibition rate (%). […]

[2] = biological target: T2, OCT3 (Homo sapiens, UniProt O75751); conditions: Sata et al., J Pharmacol Exp Ther. 2005, cited from earlier work
T2 sequence (O75751 1-556): T1 sequence (O75751 1-556)

[3] = biological target: T1, human organic cation transporter 3 (hOCT3); experiment: Histamine incorporation experiment in HEK293 cells expressing hOCT3 (OCT3 inhibition activity); assay type: cell-based; conditions: control curve; for IC80: HEK293
[4] = various diagnostic methods in clinical trials, WO 01/93863; cited from earlier work
[5] = test system: Male ddY-strain mice; experiment: Forced swimming test (akinesis time); assay type: in vivo, mouse; conditions: low dose administered independently: imipramine 4 mg/kg or OCT3 inhibitor 0.25 μl/hr
Excerpt: In the forced swimming test, forced swimming is loaded on a mouse or rat as a test animal in a test tank from which the mouse or rat cannot escape. Then, after an escape behavior of the test animal, an akinesis (a state in which the test animal is floating with only its face out over the surface of the water and without moving legs) is confirmed. When the test animal is put in the test tank again after 24 or more hours later, the akinesis is expressed earlier than the first test. Duration of the akinesis within a predetermined time period (generally about 5 minutes) is reproduced relatively accurately.
Specifically, a test is performed as follows.
Male ddY-strain mice (Japan SLC, Inc.) having body weights of 28 to 33 g are used for an experiment. […] In the first forced swimming test, all of the laboratory mice are made to swim in a glass cylinder (diameter 15.5 cm, depth 17 cm, depth of water 12 cm, temperature of water 25° C.) for 300 seconds, the akinesis time are measured, and the mice are divided into experimental groups (OCT3 inhibitor administration group, positive control group, and negative control group) so that average values of these groups are almost identical. […] After one week from the injection, the mice are made to swim in the cylinder again for 300 seconds, and the akinesis time is measured for each of the mice. […]

**Q.** For `NC(N)=Nc1nc(CSCCC(N)=NS(N)(=O)=O)cs1` [FAMOTIDINE, famotidine, reference compound], which remaining activity at 10 µM [1] is on record?
**A.** 92.4%

**Q.** And the inhibition at 10 µM [1]?
**A.** 7.6%

**Q.** What about the “OCT3 inhibition activity (in words)” value ([2]; listed as Famotidine) of the same molecule?
**A.** strong OCT3 inhibition activity

**Q.** And the “OCT3 inhibition activity (in words)” value ([2]; listed as famotidine)?
**A.** strong OCT3 activity inhibition action

**Q.** What about the IC80 [3] of the same molecule?
**A.** 330 µM

**Q.** And the pIC50 [3]?
**A.** 4.17

**Q.** And the antidepressant activity [4]?
**A.** antidepressant activity is confirmed

**Q.** Which remaining activity at 10 µM [1] does the source give for `NC(N)=Nc1cccc(CSCC/C(N)=N/S(=O)(=O)C(F)(F)F)n1` [SR-2022] here?
**A.** 50%

**Q.** And the remaining activity at 30 µM [1]?
**A.** 21%

**Q.** What about the inhibition at 10 µM [1] of the same molecule?
**A.** 50%

**Q.** And the inhibition at 30 µM [1]?
**A.** 79%

**Q.** What about the IC80 [3] of the same molecule?
**A.** 30 µM

**Q.** And the pIC50 [3]?
**A.** 4.98

**Q.** For `NC(N)=Nc1cc(CSCC/C(N)=N/S(=O)(=O)C(F)(F)F)ccn1` [SR-2023], which remaining activity at 10 µM [1] is on record?
**A.** 36.7%

**Q.** And the remaining activity at 30 µM [1]?
**A.** 15%

**Q.** And the inhibition at 10 µM [1]?
**A.** 63.3%

**Q.** What about the inhibition at 30 µM [1] of the same molecule?
**A.** 85%

**Q.** And the IC80 [3]?
**A.** 28 µM

**Q.** What about the pIC50 [3] of the same molecule?
**A.** 5.19

**Q.** With `Cc1nc(CCSCc2cccc(N=C(N)N)n2)[nH]c(=O)c1CCc1ccccc1` [SR-2036] as the molecule, how does the remaining activity at 10 µM [1] read?
**A.** 33.7%

**Q.** And the remaining activity at 30 µM [1]?
**A.** 15.4%

**Q.** What about the inhibition at 10 µM [1] of the same molecule?
**A.** 66.3%

**Q.** And the inhibition at 30 µM [1]?
**A.** 84.6%

**Q.** What about the IC80 [3] of the same molecule?
**A.** 27 µM

**Q.** And the pIC50 [3]?
**A.** 5.23

**Q.** What does the source list for `NC(N)=Nc1nc(CSCCNC(=O)CO)cs1` [SR-2045]?
**A.** remaining activity at 10 µM [1]: 56.6%; remaining activity at 30 µM [1]: 35.2%; inhibition at 10 µM [1]: 43.4%; inhibition at 30 µM [1]: 64.8%; IC80 [3]: 56 µM; pIC50 [3]: 4.91

**Q.** What does the source list for `NC(N)=Nc1nc(CCCC/C(N)=N/S(=O)(=O)C(F)(F)F)cs1` [SR-2065]?
**A.** remaining activity at 10 µM [1]: 72.9%; remaining activity at 30 µM [1]: 41.5%; inhibition at 10 µM [1]: 27.1%; inhibition at 30 µM [1]: 58.5%; IC80 [3]: 90 µM; pIC50 [3]: 4.62

**Q.** For `Cc1nc(CCCCc2csc(N=C(N)N)n2)[nH]c(=O)c1CCc1ccccc1` [SR-2076], which remaining activity at 10 µM [1] is on record?
**A.** 14.8%

**Q.** What about the remaining activity at 30 µM [1] of the same molecule?
**A.** 11.8%

**Q.** And the inhibition at 10 µM [1]?
**A.** 85.2%

**Q.** What about the inhibition at 30 µM [1] of the same molecule?
**A.** 88.2%

**Q.** What about the IC80 [3] of the same molecule?
**A.** 8 µM

**Q.** And the pIC50 [3]?
**A.** 5.72

**Q.** Which remaining activity at 10 µM [1] does the source give for `Cc1nc(CCSCc2ccnc(N=C(N)N)c2)[nH]c(=O)c1CCc1ccccc1` [SR-2219] here?
**A.** 51.5%

**Q.** And the remaining activity at 30 µM [1]?
**A.** 22.6%

**Q.** What about the inhibition at 10 µM [1] of the same molecule?
**A.** 48.5%

**Q.** And the inhibition at 30 µM [1]?
**A.** 77.4%

**Q.** What about the IC80 [3] of the same molecule?
**A.** 49 µM

**Q.** And the pIC50 [3]?
**A.** 4.72

**Q.** For `NC(N)=Nc1nc(COCc2ccc(F)cc2)cs1` [SR-3129], which “OCT3 Inhibition Rate (%)” value [1] is on record?
**A.** 20.6%

**Q.** With `NC(N)=Nc1nc(CCCc2ccc(F)cc2)cs1` [SR-3131] as the molecule, how does the “OCT3 Inhibition Rate (%)” value [1] read?
**A.** 22.3%

**Q.** Which “OCT3 Inhibition Rate (%)” value [1] does the source give for `NC(N)=Nc1nc(CNCCc2ccc(F)cc2)cs1` [SR-3136] here?
**A.** 28.6%

**Q.** For `NC(N)=Nc1nc(CSCCc2ccc(F)cc2)cs1` [SR-3137], which “OCT3 Inhibition Rate (%)” value [1] is on record?
**A.** 33.3%

**Q.** Which “OCT3 Inhibition Rate (%)” value [1] does the source give for `N=C(NCc1csc(N=C(N)N)n1)NS(N)(=O)=O` [SR-3154] here?
**A.** −11.5%

**Q.** Which “OCT3 Inhibition Rate (%)” value [1] does the source give for `NC(N)=Nc1nc(CS/C(N)=N\S(N)(=O)=O)cs1` [SR-3155] here?
**A.** −10.3%

**Q.** Which “OCT3 Inhibition Rate (%)” value [1] does the source give for `NC(N)=Nc1nc(CS/C(N)=N/S(=O)(=O)C(F)(F)F)cs1` [SR-3159] here?
**A.** 6.2%

**Q.** Which “OCT3 Inhibition Rate (%)” value [1] does the source give for `NC(N)=Nc1ncc(CSCCC(N)=NS(=O)(=O)c2ccccc2)s1` [SR-3203] here?
**A.** 22.2%

**Q.** With `N=C(N)CCSCc1csc(N=C2NCCN2)n1` [SR-3208] as the molecule, how does the “OCT3 Inhibition Rate (%)” value [1] read?
**A.** 8.7%

**Q.** Which “OCT3 Inhibition Rate (%)” value [1] does the source give for `CCCCN/C(N)=N/c1nc(CSCCC(=N)N)cs1` [SR-3209] here?
**A.** 43.0%

**Q.** For `CN(C)CCCN1c2ccccc2CCc2ccccc21` [imipramine], which “average of the akinesis time” value [5] is on record?
**A.** about 200 seconds
